Laboratory results: article doi:10.1101/580449v1 (biorxiv, 2019)

Tests used:
[1] = target: T1, CSTZM (wildtype sequence) (Zea mays, UniProt B4FZ94); assay: GFP-thermal shift titration; type: binding
T1 sequence (B4FZ94 1-322): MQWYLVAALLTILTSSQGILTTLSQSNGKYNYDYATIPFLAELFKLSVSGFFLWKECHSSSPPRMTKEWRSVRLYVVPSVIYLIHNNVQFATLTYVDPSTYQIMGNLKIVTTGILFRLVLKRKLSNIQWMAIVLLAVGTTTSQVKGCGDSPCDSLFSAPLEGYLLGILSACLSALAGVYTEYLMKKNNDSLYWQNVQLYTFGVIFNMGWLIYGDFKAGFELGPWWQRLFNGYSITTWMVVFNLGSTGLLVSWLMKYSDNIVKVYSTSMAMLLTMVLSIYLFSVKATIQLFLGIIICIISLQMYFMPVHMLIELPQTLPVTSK

hCST = target: T2, hCST (Homo sapiens, UniProt P78382); assay: GFP-thermal shift titration; type: binding
T2 sequence (P78382 1-337): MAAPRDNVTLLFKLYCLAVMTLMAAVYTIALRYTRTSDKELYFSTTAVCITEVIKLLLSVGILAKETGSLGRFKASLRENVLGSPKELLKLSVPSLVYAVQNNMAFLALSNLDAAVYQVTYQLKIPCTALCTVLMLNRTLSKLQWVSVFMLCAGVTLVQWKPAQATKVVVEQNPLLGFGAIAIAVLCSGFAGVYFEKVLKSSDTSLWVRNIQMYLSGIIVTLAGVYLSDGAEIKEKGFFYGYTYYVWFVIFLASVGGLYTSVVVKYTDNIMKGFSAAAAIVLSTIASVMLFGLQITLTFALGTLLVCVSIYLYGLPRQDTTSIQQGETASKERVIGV

SMILES | Kd [1] [µM] | Kd (hCST) [µM]
CC(=O)N[C@H]1[C@H]([C@H](O)[C@H](O)CO)O[C@](OP(=O)(O)OC[C@H]2O[C@@H](n3ccc(N)nc3=O)[C@H](O)[C@@H]2O)(C(=O)O)C[C@@H]1O [CMP-sialic acid] | 3100 ± 200 | 1500 ± 300
Nc1ccn([C@@H]2O[C@H](COP(=O)(O)O)[C@@H](O)[C@H]2O)c(=O)n1 [CMP] | 40 | 40
